Measured values published in patent US20180327355A1, “ISOINDOLINE DERIVATIVES” (priority 2015, published 2018).
Where two headings read alike, the source gives them in different places.

System: HIV
Test: MT4 assay (anti-HIV activity)
Format: cell-based
Protocol: Antiviral HIV activity and cytotoxicity values for compounds of the invention from Table 1 were measured in parallel in the HTLV-1 transformed cell line MT-4 based on the method previously described (Hazen et al., 2007, In vitro antiviral activity of the novel, tyrosyl-based human immunodeficiency virus (HIV) type 1 protease inhibitor brecanavir (GW640385) in combination with other antiretrovirals and against a panel of protease inhibitor-resistant HIV (Hazen et al., “In vitro antiviral activity of the novel, tyrosyl-based human immunodeficiency virus (HIV) type 1 protease inhibitor brecanavir (GW640385) in combination with other antiretrovirals and against a panel of protease inhibitor-resistant HIV”, Antimicrob. Agents Chemother. 2007, 51: 3147-3154; and Pauwels et al., “Sensitive and rapid assay on MT-4 cells for the detection of antiviral compounds against the AIDS virus”, J. of Virological Methods 1987, 16: 171-185).
Luciferase activity was measured 96 hours later by adding a cell titer glo (Promega, Madison, Wis.). Percent inhibition of cell protection data was plotted relative to no compound control. Under the same condition, cytotoxicity of the compounds was determined using cell titer Glo™ (Promega, Madison, Wis). ICsos were determined from a 10 point dose response curve using 3-4-fold serial dilution for each compound, which spans a concentration range >1000 fold.
These values are plotted against the molar compound concentrations using the standard four parameter logistic equation:
y=((Vmax*x̂n)/(K̂n+x̂n))+Y2
Y2=minimum y n=slope factor
Vmax=maximum y x=compound concentration [M]

[1] = MT4 assay, HTLV-1 transformed cell line MT-4, readout 96 hours, cell titer glo, read-out: IC50

Cc1c2c(c(C)c([C@H](OC(C)(C)C)C(=O)O)c1CC(=O)NC1CCCCC1)CN(C(=O)c1cccc(F)c1)C2 [Example 5, (S)-2-(tert-butoxy)-2-(6-(2-(cyclohexylamino)-2-oxoethyl)-2-(3-fluorobenzoyl)-4,7-dimethylisoindolin-5-yl)acetic acid]
IC50 [1]: 50 µM

Cc1c2c(c(C)c([C@H](OC(C)(C)C)C(=O)O)c1NC(=O)CC1CCCCC1)CN(C(=O)c1cccc(F)c1)C2 [Example 9, (S)-2-(tert-butoxy)-2-(6-(2-cyclohexylacetamido)-2-(3-fluorobenzoyl)-4,7-dimethylisoindolin-5-yl)acetic acid]
IC50 [1]: 50 µM

Cc1c(/C=C/C2CCCCC2)c([C@H](OC(C)(C)C)C(=O)O)c(C)c2c1CN(C(=O)c1cccc(F)c1)C2 [Example 14, (S,E)-2-(tert-butoxy)-2-(6-(2-cyclohexylvinyl)-2-(3-fluorobenzoyl)-4,7-dimethylisoindolin-5-yl)acetic acid]
IC50 [1]: 0.086 µM

Cc1c2c(c(C)c([C@H](OC(C)(C)C)C(=O)O)c1NC(=O)c1ccccc1)CN(C(=O)c1cccc(F)c1)C2 [Example 10, (S)-2-(6-benzamido-2-(3-fluorobenzoyl)-4,7-dimethylisoindolin-5-yl)-2-(tert-butoxy)acetic acid]
IC50 [1]: 4.1 µM

C/C(=C\c1c(C)c2c(c(C)c1[C@H](OC(C)(C)C)C(=O)O)CN(C(=O)c1cccc(F)c1)C2)c1ccccc1 [Example 21, (S,E)-2-(tert-butoxy)-2-(2-(3-fluorobenzoyl)-4,7-dimethyl-6-(2-phenylprop-1-en-1-yl)isoindolin-5-yl)acetic acid]
IC50 [1]: 0.103 µM

Cc1c2c(c(C)c(N(C)C(=O)CC3CCCCC3)c1[C@H](OC(C)(C)C)C(=O)O)CN(C(=O)c1cccc(F)c1)C2 [Example 13, (S)-2-(tert-butoxy)-2-(6-(2-cyclohexyl-N-methylacetamido)-2-(3-fluorobenzoyl)-4,7-dimethylisoindolin-5-yl)acetic acid]
IC50 [1]: 44.6 µM

Cc1c(/C=C/C2CCOCC2)c([C@H](OC(C)(C)C)C(=O)O)c(C)c2c1CN(C(=O)c1cccc(F)c1)C2 [Example 15, (S,E)-2-(tert-butoxy)-2-(2-(3-fluorobenzoyl)-4,7-dimethyl-6-(2-(tetrahydro-2H-pran-4-yl)vinyl)isoindolin-5-yl)acetic acid]
IC50 [1]: 1.31 µM

Cc1c2c(c(C)c([C@H](OC(C)(C)C)C(=O)O)c1Cc1ccccc1)CN(C(=O)c1cccc(F)c1)C2 [Example 3, (S)-2-(6-benzyl-2-(3-fluorobenzoyl)-4,7-dimethylisoindolin-5-yl)-2-(tert-butoxy)acetic acid]
IC50 [1]: 0.651 µM

Cc1c(/C=C\c2ccccc2)c([C@H](OC(C)(C)C)C(=O)O)c(C)c2c1CN(C(=O)c1cccc(F)c1)C2 [Example 27, (S,Z)-2-(tert-butoxy)-2-(2-(3-fluorobenzoyl)-4,7-dimethyl-6-styrylisoindolin-5-yl)acetic acid]
IC50 [1]: 0.868 µM

Cc1ccc(C(=O)Nc2c(C)c3c(c(C)c2[C@H](OC(C)(C)C)C(=O)O)CN(C(=O)c2cccc(F)c2)C3)cc1 [Example 8, (S)-2-(tert-butoxy)-2-(2-(3-fluorobenzoyl)-4,7-dimethyl-6-(4-methylbenzamido)isoindolin-5-yl)acetic acid]
IC50 [1]: 50 µM

Cc1ccc(CCc2c(C)c3c(c(C)c2[C@H](OC(C)(C)C)C(=O)O)CN(C(=O)c2cccc(F)c2)C3)cc1 [Example 20, (S)-2-(tert-butoxy)-2-(2-(3-fluorobenzoyl)-4,7-dimethyl-6-(4-methylphenethyl)isoindolin-5-yl)acetic acid]
IC50 [1]: 50 µM

C/C(=C(/C)c1c(C)c2c(c(C)c1[C@H](OC(C)(C)C)C(=O)O)CN(C(=O)c1cccc(F)c1)C2)c1ccccc1 [Example 23, (S,E)-2-(tert-butoxy)-2-(2-(3-fluorobenzoyl)-4,7-dimethyl-6-(3-phenylbut-2-en-2-yl)isoindolin-5-yl)acetic acid]
IC50 (96 h): 0.044 µM

Cc1c(/C=C/c2ccccc2)c([C@H](OC(C)(C)C)C(=O)O)c(C)c2c1CN(C(=O)c1cccc(F)c1)C2 [Example 17, (S,E)-2-(tert-butoxy)-2-(2-(3-fluorobenzoyl)-4,7-dimethyl-6-styrylisoindolin-5-yl)acetic acid]
IC50 [1]: 0.124 µM

Cc1c2c(c(C)c([C@H](OC(C)(C)C)C(=O)O)c1CC(=O)N1CCCCC1)CN(C(=O)c1cccc(F)c1)C2 [Example 4, (S)-2-(tert-butoxy)-2-(2-(3-fluorobenzoyl)-4,7-dimethyl-6-(2-oxo-2-(piperidin-1-yl)ethyl)isoindolin-5-yl)acetic acid]
IC50 [1]: 10.2 µM

Cc1c(/C=C/c2cc(F)c3c(c2C)CCCO3)c([C@H](OC(C)(C)C)C(=O)O)c(C)c2c1CN(C(=O)c1cccc(F)c1)C2 [Example 26]
IC50 [1]: 50 µM

Cc1c(/C=C/c2ccc3c(c2)CCCO3)c([C@H](OC(C)(C)C)C(=O)O)c(C)c2c1CN(C(=O)c1cccc(F)c1)C2 [Example 25, (S,E)-2-(tert-butoxy)-2-(6-(2-(chroman-6-yl)vinyl)-2-(3-fluorobenzoyl)-4,7-dimethylisoindolin-5-yl)acetic acid]
IC50 [1]: 33.9 µM

C#Cc1c(C)c2c(c(C)c1[C@H](OC(C)(C)C)C(=O)O)CN(C(=O)c1cccc(F)c1)C2 [Example 2, (S)-2-(tert-butoxy)-2-(6-ethynyl-2-(3-fluorobenzoyl)-4,7-dimethylisoindolin-5-yl)acetic acid]
IC50 [1]: 3.68 µM

Cc1c2c(c(C)c([C@H](OC(C)(C)C)C(=O)O)c1CCc1ccccc1)CN(C(=O)c1cccc(F)c1)C2 [Example 18, (S)-2-(tert-butoxy)-2-(2-(3-fluorobenzoyl)-4,7-dimethyl-6-phenethylisoindolin-5-yl)acetic acid]
IC50 [1]: 1.09 µM

C/C(=C\c1cc(F)c2c(c1C)CCCO2)c1c(C)c2c(c(C)c1[C@H](OC(C)(C)C)C(=O)O)CN(C(=O)c1cccc(F)c1)C2 [Example 24, (S,E)-2-(tert-butoxy)-2-(6-(1-(8-fluoro-5-methylchroman-6-yl)prop-1-en-2-yl)-2-(3-fluorobenzoyl)-4,7-dimethylisoindolin-5-yl)acetic acid]
IC50 [1]: 50 µM

Cc1c(C#Cc2ccccc2)c([C@H](OC(C)(C)C)C(=O)O)c(C)c2c1CN(C(=O)c1cccc(F)c1)C2 [Example 1, (S)-2-(tert-butoxy)-2-(2-(3-fluorobenzoyl)-4,7-dimethyl-6-(phenylethynyl)isoindolin-5-yl)acetic acid]
IC50 [1]: 1.03 µM

Cc1ccc(/C=C/c2c(C)c3c(c(C)c2[C@H](OC(C)(C)C)C(=O)O)CN(C(=O)c2cccc(F)c2)C3)cc1 [Example 19, (S,E)-2-(tert-butoxy)-2-(2-(3-fluorobenzoyl)-4,7-dimethyl-6-(4-methylstyryl)isoindolin-5-yl)acetic acid]
IC50 [1]: 50 µM

Cc1c2c(c(C)c([C@H](OC(C)(C)C)C(=O)O)c1CC(=O)Nc1ccccc1)CN(C(=O)c1cccc(F)c1)C2 [Example 6, (S)-2-(tert-butoxy)-2-(2-(3-fluorobenzoyl)-4,7-dimethyl-6-(2-oxo-2-(phenylamino)ethyl)isoindolin-5-yl)acetic acid]
IC50 [1]: 9.63 µM

Cc1c2c(c(C)c([C@H](OC(C)(C)C)C(=O)O)c1NC(=O)N1CCCCC1)CN(C(=O)c1cccc(F)c1)C2 [Example 11, (S)-2-(tert-butoxy)-2-(2-(3-fluorobenzoyl)-4,7-dimethyl-6-(piperidine-1-carboxamido)isoindolin-5-yl)acetic acid]
IC50 [1]: 3.12 µM

Cc1c(/C=C/CC(C)(C)C)c([C@H](OC(C)(C)C)C(=O)O)c(C)c2c1CN(C(=O)c1cccc(F)c1)C2 [Example 16, (S,E)-2-(tert-butoxy)-2-(6-(4,4-dimethylpent-1-en-1-yl)-2-(3-fluorobenzoyl)-4,7-dimethylisoindolin-5-yl)acetic acid]
IC50 [1]: 0.12 µM

C/C(=C\c1ccccc1)c1c(C)c2c(c(C)c1[C@H](OC(C)(C)C)C(=O)O)CN(C(=O)c1cccc(F)c1)C2 [Example 22, (S,E)-2-(tert-butoxy)-2-(2-(3-fluorobenzoyl)-4,7-dimethyl-6-(1-phenylprop-1-en-2-yl)isoindolin-5-yl)acetic acid]
IC50 [1]: 0.039 µM

Cc1ccc(C(=O)N(C)c2c(C)c3c(c(C)c2[C@H](OC(C)(C)C)C(=O)O)CN(C(=O)c2cccc(F)c2)C3)cc1 [Example 12, (S)-2-(tert-butoxy)-2-(6-(N,4-dimethylbenzamido)-2-(3-fluorobenzoyl)-4,7-dimethylisoindolin-5-yl)acetic acid]
IC50 [1]: 33.9 µM

Cc1c2c(c(C)c([C@H](OC(C)(C)C)C(=O)O)c1CC(=O)NCC(C)(C)C)CN(C(=O)c1cccc(F)c1)C2 [Example 7, (S)-2-(tert-butoxy)-2-(2-(3-fluorobenzoyl)-4,7-dimethyl-6-(2-(neopentylamino)-2-oxoethyl)isoindolin-5-yl)acetic acid]
IC50 [1]: 38 µM
